Reference: PMC7902834, “A rotary mechanism for allostery in bacterial hybrid malic enzymes” (Nature Communications, 2021)

Legend:
Type in all cases: biochemical
[1] = molecular target: T1, MaeB (hybrid malic enzyme, Bd1833/MaeB) (Bdellovibrio bacteriovorus, UniProt Q6MM14+Q6MM15); test: NADPH absorbance assay ([…] nm), single concentration […] ([…] activity left); design: gene mdh; full-length MaeB and MaeBME (Met1–Ala434)
Target sequence in this assay (Q6MM14 entry or part of it): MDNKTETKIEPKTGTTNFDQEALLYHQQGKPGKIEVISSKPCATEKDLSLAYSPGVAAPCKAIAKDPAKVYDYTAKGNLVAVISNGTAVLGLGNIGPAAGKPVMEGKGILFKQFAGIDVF
Target sequence in this assay (Q6MM15 entry or part of it): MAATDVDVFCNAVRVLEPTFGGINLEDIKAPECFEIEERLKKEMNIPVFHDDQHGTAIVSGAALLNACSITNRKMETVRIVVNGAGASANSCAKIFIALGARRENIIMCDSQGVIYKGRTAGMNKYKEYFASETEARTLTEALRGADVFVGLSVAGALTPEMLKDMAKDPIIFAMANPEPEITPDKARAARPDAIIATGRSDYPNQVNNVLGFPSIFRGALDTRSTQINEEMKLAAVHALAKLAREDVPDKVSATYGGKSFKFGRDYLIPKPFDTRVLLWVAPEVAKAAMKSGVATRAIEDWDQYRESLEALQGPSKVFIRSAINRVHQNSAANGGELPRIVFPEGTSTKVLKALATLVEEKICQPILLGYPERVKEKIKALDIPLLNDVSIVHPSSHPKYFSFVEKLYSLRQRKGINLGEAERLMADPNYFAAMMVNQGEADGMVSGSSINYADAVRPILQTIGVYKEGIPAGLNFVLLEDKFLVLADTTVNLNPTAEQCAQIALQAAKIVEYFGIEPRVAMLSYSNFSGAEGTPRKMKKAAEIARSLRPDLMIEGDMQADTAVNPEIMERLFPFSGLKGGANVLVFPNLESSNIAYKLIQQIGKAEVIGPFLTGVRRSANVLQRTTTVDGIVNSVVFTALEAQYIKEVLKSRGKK

[2] = molecular target: T1, MaeB (hybrid malic enzyme, Bd1833/MaeB); test: NADPH absorbance assay ([…] nm), single concentration […]; design: gene mdh; full-length MaeB (Met1–Lys780); settings: read-out: % of uninhibited activity at 2 mM
Target sequence in this assay (Q6MM15 entry or part of it): as above
Target sequence in this assay (Q6MM14 entry or part of it): as the sequence (Q6MM14 entry or part of it) above

[3] = molecular target: T2, MaeB (hybrid malic enzyme, Bd1833/MaeB) (Bdellovibrio bacteriovorus, UniProt Q6MM15); test: NADPH absorbance assay ([…] nm), dose response; design: gene mdh; full-length MaeB (Met1–Lys780), ligand-free MaeBapo
[4] = molecular target: T1, MaeB (hybrid malic enzyme, Bd1833/MaeB); test: steady-state kinetics, NADPH absorbance; design: gene mdh; full-length MaeB (Met1–Lys780)
Target sequence in this assay (Q6MM15 entry or part of it): as the sequence (Q6MM15 entry or part of it) above
Target sequence in this assay (Q6MM14 entry or part of it): as the sequence (Q6MM14 entry or part of it) above

[5] = molecular target: T2, MaeB (hybrid malic enzyme, Bd1833/MaeB); test: X-ray crystal structures of PTA domain and full-length; HPLC of co-purified ligand; enzyme inhibition kinetics (IC50 […]); design: gene mdh; full-length MaeB (Met1–Lys780) kinetics and crystal structure (6ZNG)
[6] = molecular target: T1, MaeB (hybrid malic enzyme, Bd1833/MaeB); test: steady-state kinetics of reverse reductive carboxylation; design: gene mdh; full-length MaeB (Met1–Lys780)
Target sequence in this assay (Q6MM15 entry or part of it): as the sequence (Q6MM15 entry or part of it) above
Target sequence in this assay (Q6MM14 entry or part of it): as the sequence (Q6MM14 entry or part of it) above

T2 sequence (Q6MM14 entry or part of it): as above
T2 sequence (Q6MM15 entry or part of it): as the sequence (Q6MM15 entry or part of it) above

O=C(O)CC(=O)C(=O)O [oxaloacetate]
NADPH absorbance assay (340 nm), single concentration 2 mM (<10% activity left) [1]: oxaloacetate inhibited both MaeB and MaeBME activities, suggesting this effector interacts directly with the ME domain

CC(=O)OP(=O)(O)O [acetyl phosphate]
activity at 2000 µM [2]: ~50%

CC(C)(COP(=O)(O)OP(=O)(O)OC[C@H]1O[C@@H](n2cnc3c(N)ncnc32)[C@H](O)[C@@H]1OP(=O)(O)O)[C@@H](O)C(=O)NCCC(=O)NCCS [CoA]
IC50 [3]: 20.2 µM

O=C(O)C[C@H](O)C(=O)O [L-malate]
steady-state kinetics, NADPH absorbance [4]: 10.0 s⁻¹ mM⁻¹

CC(=O)SCCNC(=O)CCNC(=O)[C@H](O)C(C)(C)COP(=O)(O)OP(=O)(O)OC[C@H]1O[C@@H](n2cnc3c(N)ncnc32)[C@H](O)[C@@H]1OP(=O)(O)O [acetyl-CoA]
Ki [5]: 700 nM

CC(=O)C(=O)O [pyruvate]
steady-state kinetics of reverse reductive carboxylation [6]: 0.03 s⁻¹ mM⁻¹
